Test results published in US9776965B2, “Pyrrolidin-2-one and piperidin-2-one derivatives as 11-beta hydroxysteroid dehydrogenase inhibitors” (Janssen Pharmaceutica N.V., priority 2004, dated 2017).

Columns and labels:
[1] = target: 11b-HSD1 (Homo sapiens, UniProt P28845); test: Enzymatic assay, 11b-HSD1 dependent conversion of cortisone into cortisol (reductase activity); format: biochemical; details: recombinant protein, 2 μM cortisone, 45 min at 37 C; for IC50: read-out: [C1] HSD1-prot Reduct Score
Protocol: The effects of compounds on 11b-HSD1 dependent conversion of cortisone into cortisol (reductase activity) was studied in a reaction mixture containing 30 mM Tris-HCl buffer pH 7.2, 180 μM NADPH, 1 mM EDTA, 2 μM cortisone, 1 μl drug and/or solvent and 11 μg recombinant protein in a final volume of 100 μl.
(§1) All incubations were performed for 45 min at 37 C in a water bath. The reaction was stopped by adding 100 μl acetonitrile containing 20 μg corticosterone as internal standard. After centrifugation, the product formation was analysed in the supernatant by HPLC on a Hypersyl BDS-C18 column using 0.05 mM ammonium acetate/methanol (50/50) as solvent. In all of the aforementioned assays, the drugs to be tested were taken from a stock solution and tested at a final concentration ranging from […] to 3.10^−9M. From the thus obtained dose response curves, the pIC50 value was calculated and scored as follows; Score 1=pIC50 value<5, Score 2=pIC50 value in the range of 5 to 6, Score 3=pIC50 value>6. (in this table NT stands for Not Tested).

[2] = target: T1, 11b-HSD1 (Mus musculus, UniProt P50172); test: Cellular assay, 11b-HSD1 activity in differentiated 3T3-L1 cells; format: cell-based; details: 4 hour pre-incubation; for IC50: read-out: [C2] HSD1 cellular 3T3-L1 Score
T1 construct: Fibroblasts were differentiated into adipocytes; endogenous in cells; host or cells: differentiated 3T3-L1 cells (ATCC-CL-173)
Protocol: The effects on 11b-HSD1 activity was measured in differentiated 3T3-L1 cells and rat hepatocytes.
Mouse fibroblast 3T3-L1 cells (ATCC-CL-173) were seeded at a density of 16500 cells/ml in 12 well plates and grown for 7 days in DMEM medium (supplemented with 10% heat inactivated foetal calf serum, 2 mM glutamine and 25 mg gentamycin) at 37 C in a humidified 5% CO2 atmosphere. Medium was refreshed twice a week. Fibroblasts were differentiated into adipocytes at 37 C in a 5% CO2 humidified atmosphere in growth medium containing 2 μg/ml insulin, 55 μg/ml IBMX and 39.2 μg/ml dexamethasone.
Following a 4 hour pre-incubation with test compound, 0.5 μCi ^3H-cortisone or dehydrocorticosterone, was added to the cultures. One hour later, the medium was extracted on Extrelut^3-columns with 15 ml diethyl ether and the extract was analysed by HPLC as described above.
(§2) As for the enzymatic assays, the compounds to be tested were taken from a stock solution and tested at a final concentration ranging from […] to 3.10^−9M. From the thus obtained dose response curves, the pIC50 value was calculated and scored as follows; Score 1=pIC50 value<5, Score 2=pIC50 value in the range of 5 to 6, Score 3=pIC50 value>6. Some of the thus obtained results are summarized in the table below (in this table NT stands for Not Tested).

[3] = target: T2, 11b-HSD2 (Homo sapiens, UniProt P80365); test: Cellular assay, 11b-HSD2 activity in HepG2 cells; format: cell-based; set-up: endogenous in cells; host or cells: HepG2 (ATCC HB-8065); details: 4 hour pre-incubation; for IC50: read-out: [C2] HSD2 cellular HepG2 Score
T2 sequence (P80365 1-405): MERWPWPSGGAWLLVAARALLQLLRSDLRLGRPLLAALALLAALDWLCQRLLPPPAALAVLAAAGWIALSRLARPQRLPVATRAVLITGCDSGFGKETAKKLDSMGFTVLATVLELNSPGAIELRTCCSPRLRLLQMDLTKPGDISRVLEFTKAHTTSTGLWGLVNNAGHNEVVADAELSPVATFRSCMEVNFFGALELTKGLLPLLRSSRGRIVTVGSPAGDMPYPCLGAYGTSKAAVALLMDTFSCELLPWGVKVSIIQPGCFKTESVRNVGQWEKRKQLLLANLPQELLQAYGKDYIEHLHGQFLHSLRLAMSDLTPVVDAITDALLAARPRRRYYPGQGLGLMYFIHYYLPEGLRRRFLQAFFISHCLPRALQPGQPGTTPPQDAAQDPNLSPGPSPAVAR
Protocol: The effects on 11b-HSD2 activity was studied in HepG2 and LCC-PK1-cells HepG2-cells (ATCC HB-8065) were seeded in 12 well plates at a density of 100,000 cells/ml and grown at 37 C in a humidified 5% CO2 atmosphere in MEM-Rega-3 medium supplemented with 10% heat inactivated foetal calf serum, 2 mM L-glutamine and sodium bicarbonate). Medium was refreshed twice a week.
Following a 4 hour pre-incubation with test compound, 0.5 μCi ^3H-cortisol or corticosterone, was added to the cultures. One hour later, the medium was extracted on Extrelut^3-columns with 15 ml diethyl ether and the extract was analysed by HPLC as described above.
as §2

[4] = target: T2, 11b-HSD2; test: Enzymatic assay, 11b-HSD2 dependent dehydrogenase activity; format: biochemical; details: recombinant protein, 100 nM cortisol, 45 min at 37 C; read-out: [C1] HSD2 prot Dehydro Score
Protocol: The effects on the 11b-HSD2 dependent dehydrogenase activity was studied in a reaction mixture containing 0.1M sodium phosphate buffer pH 7.5, 300 μM NAD, 100 nM cortisol (of which 2 nM is 3H-radio labelled), 1 μl drug and/or solvent and 2.5 μg recombinant protein in a final volume of 100 μl.
as §1

T1 sequence (P50172 whole entry): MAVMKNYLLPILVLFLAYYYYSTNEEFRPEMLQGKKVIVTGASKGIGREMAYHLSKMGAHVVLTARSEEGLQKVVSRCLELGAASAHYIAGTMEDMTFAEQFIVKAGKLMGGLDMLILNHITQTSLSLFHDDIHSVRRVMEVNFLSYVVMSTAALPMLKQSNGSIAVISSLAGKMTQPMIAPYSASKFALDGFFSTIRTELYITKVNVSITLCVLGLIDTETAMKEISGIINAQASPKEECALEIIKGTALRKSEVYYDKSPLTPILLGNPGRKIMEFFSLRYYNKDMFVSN
Sequence of 11b-HSD1 (Homo sapiens, UniProt P28845) (P28845 whole entry): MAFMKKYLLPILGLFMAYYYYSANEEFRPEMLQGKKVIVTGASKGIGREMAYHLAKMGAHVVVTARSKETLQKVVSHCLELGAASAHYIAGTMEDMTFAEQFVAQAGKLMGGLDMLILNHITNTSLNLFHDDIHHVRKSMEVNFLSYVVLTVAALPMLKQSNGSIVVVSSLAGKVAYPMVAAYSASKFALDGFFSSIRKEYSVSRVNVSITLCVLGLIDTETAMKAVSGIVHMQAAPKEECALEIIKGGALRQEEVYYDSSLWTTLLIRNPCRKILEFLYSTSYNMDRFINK

[C1] HSD1-prot Reduct Score [1] | [C2] HSD2 cellular HepG2 Score [3] | IC50 [1] [nM] | IC50 [4] [µM] | IC50 [2] [nM] | IC50 [3] [µM] | SMILES | [C2] HSD1 cellular 3T3-L1 Score [2]
3 (Score 3=pIC50 value>6) | 1 (Score 1=pIC50 value<5) |  |  |  |  | Cc1cccc(C)c1C[C@H]1CCN([C@@H](C)c2ccccc2)C1=O [Compound 77] | 3 (Score 3=pIC50 value>6)
 |  | < 1000 | 1 to 10 | < 1000 | > 10 | Cc1ccccc1C(C)[C@H]1CCN([C@@H](C)c2ccccc2)C1=O (some centres unmarked) [Compound 163] | 
 |  | < 1000 | > 10 | < 1000 | > 10 | Cc1ccccc1C[C@@H]1CCN([C@@H](C)c2ccccc2)C1=O [Compound 1] | 
 |  | < 1000 | 1 to 10 | < 1000 | > 10 | COc1ccc(C[C@@H]2CCN([C@@H](C)c3ccccc3)C2=O)c(Cl)c1OC [Compound 119] | 
 |  | < 1000 | > 10 | < 1000 | > 10 | O=C1C(Cc2c(Cl)cccc2Cl)CCN1CCc1ccccc1 (centres unmarked) [Compound 32] | 
 |  | < 1000 | 1 to 10 | < 1000 | > 10 | Cc1ccccc1C(C)[C@@H]1CCN([C@@H](C)c2ccccc2)C1=O (some centres unmarked) [Compound 162] | 
 |  | < 1000 | > 10 | < 1000 | > 10 | C[C@H](c1ccccc1)N1CC[C@H](Cc2c(Cl)cccc2Cl)C1=O [Compound 45] | 
 |  | > 10000 | > 10 | < 1000 | > 10 | Cc1ccc(C[C@@H]2CCN([C@H](C)c3ccccc3)C2=O)cc1 [Compound 27] | 
 |  | > 10000 |  | < 1000 | > 10 | Cc1cccc(C)c1C[C@@H]1CCN([C@@H](C)c2ccccc2)C1=O [Compound 149] | 
 |  | 1000 to 10000 |  | 1000 to 10000 | > 10 | C[C@@H](c1ccccc1)N1CC[C@H](Cc2ccccc2)C1=O [Compound 6] | 
 |  | 1000 to 10000 | > 10 | < 1000 | > 10 | O=C1C(Cc2c(Cl)cccc2Cl)CCN1Cc1ccccc1 (centres unmarked) [Compound 59] | 
 |  | 1000 to 10000 |  | 1000 to 10000 | > 10 | Cc1ccccc1C[C@H]1CCN([C@@H](C)c2ccccc2)C1=O [Compound 2] | 
 |  | < 1000 | > 10 | < 1000 | > 10 | O=C1C(Cc2ccccc2Cl)CCN1CCc1ccccc1 (centres unmarked) [Compound 30] | 
 |  | > 10000 |  | < 1000 | 1 to 10 | C[C@@H](c1ccccc1)N1CC[C@H](Cc2cc3c(cc2Cl)OCO3)C1=O [Compound 154] | 
 |  | 1000 to 10000 |  | < 1000 | > 10 | Cc1ccc([C@H](O)[C@@H]2CCN([C@@H](C)c3ccccc3)C2=O)c(C)c1 [Compound 69] | 
 |  | > 10000 |  | 1000 to 10000 | > 10 | Cc1ccc(C[C@H]2CCN([C@@H](C)c3ccccc3)C2=O)cc1 [Compound 4] | 
 |  | > 10000 |  | < 1000 | > 10 | Cc1cccc(C)c1C[C@H]1CCN([C@@H](C)c2ccccc2)C1=O [Compound 148] | 
 |  | < 1000 |  | < 1000 | > 10 | C[C@@H](c1ccccc1)N1CC[C@H](Cc2c(F)cccc2F)C1=O [Compound 71] | 
 |  | 1000 to 10000 |  | 1000 to 10000 | > 10 | C[C@@H](c1ccccc1)N1CC[C@@H](Cc2ccccc2)C1=O [Compound 5] | 
 |  | < 1000 |  | 1000 to 10000 | > 10 | Cc1ccc(C[C@@H]2CCN([C@@H](C)c3ccccc3)C2=O)cc1 [Compound 3] | 
 |  | < 1000 |  | < 1000 | > 10 | O=C1C(Cc2c(Cl)cccc2Cl)CCN1CCc1ccc(F)cc1 (centres unmarked) [Compound 80] | 

[C1] HSD1-prot Reduct Score [1] | [C2] HSD2 cellular HepG2 Score [3] | IC50 [1] [nM] | IC50 [4] [µM] | IC50 [2] [nM] | IC50 [3] [µM] | SMILES | [C2] HSD1 cellular 3T3-L1 Score [2]
 |  | < 1000 |  | < 1000 |  | C[C@@H](c1ccccc1)N1CC[C@H]([C@@](C)(O)c2ccc(CCBr)cc2)C1=O [Compound 117] | 
 |  | > 10000 |  | < 1000 |  | O=C1C(Cc2c(Cl)cccc2Cl)CCN1CCCc1ccccc1 (centres unmarked) [Compound 114] | 
 |  | > 10000 |  | 1000 to 10000 |  | Cc1ccc(C[C@H]2CCN([C@H](C)c3ccccc3)C2=O)cc1 [Compound 26] | 
 |  | > 10000 |  | < 1000 | > 10 | C[C@@H](c1ccccc1)N1CC[C@@H](Cc2c(F)cccc2F)C1=O [Compound 70] | 
 |  | < 1000 |  | < 1000 |  | O=C1[C@H](Cc2c(Cl)cccc2Cl)CCN1[C@H](CO)c1ccccc1 [Compound 105] | 
 |  | > 10000 |  | 1000 to 10000 |  | C[C@@H](c1ccccc1)N1CC[C@@H](CCc2ccc(N(C)C)cc2)C1=O [Compound 130] | 
 |  | > 10000 |  | 1000 to 10000 |  | COc1ccc(CC[C@H]2CCN([C@@H](C)c3ccccc3)C2=O)cc1 [Compound 133] | 
 |  | < 1000 |  | < 1000 |  | C[C@H](c1ccccc1)[C@H]1CCN([C@@H](C)c2ccccc2)C1=O [Compound 159] | 
 |  | 1000 to 10000 |  | < 1000 |  | COc1ccc(C[C@H]2CCN([C@@H](C)c3ccccc3)C2=O)c(Cl)c1OC [Compound 120] | 
 |  | > 10000 |  | 1000 to 10000 |  | C[C@H](c1ccccc1)N1CC[C@@H](Cc2c(Cl)cccc2Cl)C1=O [Compound 44] | 
 |  | < 1000 |  | < 1000 |  | CC[C@@H](C[C@@H]1CCN([C@@H](C)c2ccccc2)C1=O)c1ccccc1 [Compound 139] | 
 |  | 1000 to 10000 |  | 1000 to 10000 |  | COc1cc(C[C@H]2CCN([C@@H](C)c3ccccc3)C2=O)ccc1OCc1ccccc1 [Compound 122] | 
 |  | > 10000 |  | 1000 to 10000 |  | COc1cccc(CC2CCN(Cc3ccccc3)C2=O)c1 (centres unmarked) [Compound 48] | 
 |  | 1000 to 10000 |  | 1000 to 10000 |  | COc1ccc(CC[C@@H]2CCN([C@@H](C)c3ccccc3)C2=O)cc1 [Compound 132] | 
 |  | > 10000 |  | 1000 to 10000 |  | C[C@H](c1ccccc1)N1CC[C@@H](Cc2ccccc2)C1=O [Compound 37] | 
 |  | 1000 to 10000 |  | 1000 to 10000 |  | COc1ccccc1C[C@@H]1CCN([C@@H](C)c2ccccc2)C1=O [Compound 8] | 
3 (Score 3=pIC50 value>6) |  |  |  |  |  | Cc1cccc(C)c1C[C@@H]1CCN([C@@H](C)c2ccccc2)C1=O [Compound 76] | 2 (Score 2=pIC50 value in the range of 5 to 6)
 |  | 1000 to 10000 |  | > 10000 |  | COc1cccc(CC2CCN(CCc3ccccc3)C2=O)c1 (centres unmarked) [Compound 24] | 
 |  | < 1000 |  | 1000 to 10000 |  | O=C1C(Cc2c(Cl)cccc2Cl)CCN1CCc1ccc(Br)cc1 (centres unmarked) [Compound 82] | 
 |  | > 10000 |  | 1000 to 10000 |  | N#Cc1ccccc1CC1CCN(Cc2ccccc2)C1=O (centres unmarked) [Compound 54] | 
